From article PMC8110578, “Phenylethynylbenzyl-modified biguanides inhibit pancreatic cancer tumor growth” (Scientific Reports, 2021)

How the values were obtained:
[1] = HPTS assay, internal pH of EYPC liposomes; conditions: 5 mM (50 mol% relative to 10 mM EYPC), NaOH pulse at 300 s
Description: (§1) Figure 2 (A) Partition of compounds in an U-tube experiment. Concentration of biguanide on the trans-side of the U-tube at 48 h and 72 h at 25 °C, after addition of 250 µM of biguanide on the cis-side. (B) Variation in the internal pH of HPTS-containing EYPC liposomes. Intravesicular solution: 1 mM HPTS, 10 mM HEPES, and 100 mM NaCl, adjusted to pH = 7.4, and extravesicular solution: 10 mM HEPES and 100 mM NaCl, adjusted to pH = 7.4. Biguanidiums were injected after 50 s at 5 mM (50 mol% relative to the 10 mM EYPC concentration), a NaOH pulse was induced at 300 s, and the liposomes were lysed with Triton-X at 550 s. Each curve is the average of three independent measurements. (C) Fluorescence of safranin O in the EYPC liposomes. Biguanidium salts were injected at 5 mM (50 mol% relative to the 10 mM EYPC concentration) at 50 s. Each curve is the average of three independent measurements. […] Mitochondrial isolation was performed according to the previously reported protocol.

[2] = Safranin O assay, membrane potential of EYPC liposomes; conditions: 5 mM (50 mol% relative to 10 mM EYPC)
Description: as §1

[3] = U-tube experiment (partition across a bulk hydrophobic solvent); type: physicochemical; conditions: 250 µM on cis side, up to 72 h
Description: as §1
Experimental. U-tube experiment was prepared by adding 800 µL of dichloromethane in a U-shaped tube as a representation of the hydrophobic lipid membrane. On the receiving end (trans side) of the tube was added 300 µL of distilled water while the other side (cis side) was filled with 300 µL of a 250 µM solution of the compound of interest at 25°C. At 48h and 72h, 100 µL aliquot of the trans side was diluted in 900 µL methanol and monitored by LCMS (292 m/z). Area under curve (AUC) was measured and fitted on a calibration curve.

[4] = test system: KP4 cells sub-cutaneous xenografts; assay: KP4 sub-cutaneous xenografts in nude mice; conditions: 50 mg/kg/day IP, 5 day/week, from day 11 post engraftment, 37 days
Source text: This dose was chosen from previous work on biguanides to treat mice with pancreatic cancer.
Figure 5 Progression of the volume of KP4 cells sub-cutaneous xenografts performed in nude mice over 37 days. […] (B) Body weight of mice seven days after treatment. […] Representative images shown. Scale bar = 100 µm. […] Results are shown in graphics comparing the percentage of cells stained in each category and the intensity of staining. (E,G) Images of the most representative phenotypes for KI67 staining (E) and cleaved caspase 3 (G).
Experimental. All experiments were performed in accordance to the rules of the in vivo ethical committe of University of Montreal (CDEA #17-103). 6-7 weeks old female nude mice (Hsd:Athymic Nude- Foxn1nu, Envigo) were implanted sub-cutaneously with 750.000 KP4 cells in 100μl of a sterile mix of 20% Matrigel (Corning) in saline solution. Tumor volume was determined by using a caliper, following the formula 4/3*Π*(L*W*T) were L represent the length of the tumor, W, the width, and T, the thickness (all measured in millimeter). […] The compounds were dissolved in the vehicle: 45% Propyleneglycol (Sigma-Aldrich) +5% Tween 80 (Sigma-Aldrich) + ddH2O.

KP4 tumor sections = assay: KI67 and cleaved caspase 3 staining of tumor sections from treated mice; type: in vivo, nude mice; conditions: 50 mg/kg, tumor sections after treatment
Source text: (B) Body weight of mice seven days after treatment. […] Representative images shown. Scale bar = 100 µm.
To assess the mechanism of the antitumor activity, we stained tumor sections obtained from animals after the treatment protocol for proliferation marker KI67 and apoptosis marker cleaved caspase 3, and quantified the data according to the scoring key in Fig. 5C. […] However, there were no significant differences in staining for cleaved caspase 3 […].

[5] = test system: NB508 mouse pancreatic ductal adenocarcinoma cells; assay: In vitro growth inhibition screen at 5 µM, NB508 cells; type: cell-based; conditions: 72 h at 37 °C
Source text: (§2) Figure 1 (A) Structure and crystal packing of previously studied PEB-disubstituted (A.1) and monosubstituted (A.2 and A.3) benzimidazolium salts. Compound A.1 is an efficient chloride transporter forming channels and generating holes in bacterial membranes and red blood cellular membranes. Compound A.2 penetrates phospholipid membranes but is less efficient as ion transporter as it forms more compact aggregates; its toxicity on RBC is lower than compound A.1. The replacement of the phenyl group with a methyl group in compound A.3 results in the formation of even more compact aggregates with even lower toxicity on RBC. (B) Structure of PEB-substituted biguanidium salts. For each biguanide we prepared three series of biguanidium salts with different counterions. (C) Synthesis of 4-(phenylethynyl)benzylbiguanide 1 and 4-(phenylethyl)benzylbiguanide 2; (a) Phenylacetylene, PdCl2PPh3, CuI, PPh3, Et3N, THF, 70 °C, o.n. (b) NaCN(BH3)3, EtOHNH4OAc sat./NH3, 80 °C, o.n (c) Dicyandiamide, TMSCl, THFanh., 145 °C, 1 h (d) Pd/C 10%, H2, EtOH/AcOEt, 60 °C, 2 h. (D) Synthesis of 4-(phenylethynylphenyl)biguanidium 3 and 4-(phenylethylphenyl)biguanidium 4 (a) (1) Boc2O, THF, 2 h, (2) Phenylacetylene, PdCl2PPh3, CuI, PPH3, Et3N, THF, 70°, o.n. (b) TFA, DCM, 60 °C, 2 h (c) Dicyandiamide, TMSCl, THFanh, 145 °C, 1 h (d) Pd/C 10%, H2, EtOH/AcOEt, 60 °C, 2 h. The NMR spectra of the synthesized compounds are given in Supplementary Figs. S1–S24. (E) Relative growth of NB508 mouse pancreatic ductal adenocarcinoma cells and IMR90 fibroblasts exposed to 5 µM of PEB-biguanidium salts. Cells were incubated for 72 h at 37 °C. Errors bars represent the standard error of the mean (SEM), *p < 0.05, **p < 0.01, Student’s t test. (F) Crystal structure of 1b showing its self-assembly in the solid state. Crystal data is available in Supplementary Tables S1–S8 and crystal packing in Supplementary Fig. S25. TEXT PRINTED IN THE PICTURE: (A) A.1: HC50: 0.15 mM | (A) A.2: HC50: 1 mM | (A) A.3: HC50: 150 mM
NB508 is an aggressive pro-metastatic pancreatic cancer cell line that we used previously to study the role of mitochondria in pancreatic cancer. […].

IMR90 fibroblasts = assay: In vitro growth inhibition screen at 5 µM, IMR90 fibroblasts; type: cell-based, human; conditions: 72 h
Source text: as §2, with “The NMR spectra of the synthesized compounds are given in Supplementary Figs. S1–S24. (E) Relative growth of NB508 mouse pancreatic ductal adenocarcinoma cells and IMR90 fibroblasts exposed to 5 µM of PEB-biguanidium salts. Cells were incubated for 72 h at 37 °C. Errors bars represent the standard error of the mean (SEM), *p < 0.05, **p < 0.01, Student’s t test. (F) Crystal structure of 1b showing its self-assembly in the solid state. Crystal data is available in Supplementary Tables S1–S8 and crystal packing in Supplementary Fig. S25. TEXT PRINTED IN THE PICTURE: (A) A.1: HC50: 0.15 mM | (A) A.2: HC50: 1 mM | (A) A.3: HC50: 150 mM” left out

KP4 cells = assay: Growth assay (crystal violet), KP4 cells; type: cell-based, human; conditions: Homo sapiens, KP-4, 72 h, KP4 cells, 3 days treatment, crystal violet retention assay; read-out: IC50 KP4
Description: (§3) All chemicals were purchased from Aldrich Chemicals in their highest purity and used without further purification. Deuterated dimethylsulfoxide (DMSO-d^6) and deuterated chloroform (CDCl3) were purchased from CDN Isotopes. NMR spectra were recorded on Bruker advance 400 and 100 spectrometers. Coupling constants are given in hertz (Hz) and chemical shifts are given in parts per million (ppm, δ) measured relative to the residual solvent (the multiplicity of the signals are given as s: singlet, d: doublet, t: triplet, and m: multiplet). High-resolution mass spectra (HRMS) were recorded on a TSQ Quantum Ultra (Thermo Scientific) triple quadrupole with accurate mass option instrument (Université de Montréal Mass Spectrometry Facility). MS experiences were performed using an UltrafleXtreme MALDI TOF/TOF mass spectrometer equipped with a SmartBeam II Nd:Yag/355 nm laser operating at 1 kHz and providing a laser focus down to 20 μm in diameter (Bruker Daltonics, Billerica, MA). The data acquisition for MS was performed in positive ion mode using the linear geometry with flexControl 3.4 (Bruker Daltonics, Billerica, MA). Acceleration voltage was set to + 25 kV and all other instrumental parameters (delayed extraction parameters, source voltages, detector gain, laser energy, etc.) were optimized for maximum S/N for the drug compounds. L-α-Phosphatidylcholine was purchased from Avanti Polar Lipids. Transport and depolarization studies as well as absorbance measurements were performed on a Varian Cary Eclipse fluorescence spectrophotometer. The hemolysis assays were performed on a Fluostar Optima plate reader. Single crystals of C18H18F3N5O3S were obtained from chloroform. A suitable crystal was selected and analysed on a Bruker Venture Metaljet diffractometer. Crystal violet retention assay was used for cell growth assays and IC50 were determined using Prism (GraphPad). NAD/NADH quantitation colorimetric kit (#K337-100) from Biovision was used according to manufacturer’s instructions. ECAR (extracellular acidification rate) and OCR of KP4 cells (oxygen consumption rate) were measured on a Seahorse XF-24 (Agilent).
(§4) Experimental. KP4 (Riken RCB1005) and PSN1 (ATCC: CRM-CRL-3211), were cultured in Dulbecco's modified Eagle's medium (DMEM) (Wisent, St-Bruno, QC) supplemented with 10 % of fetal bovine serum (FBS) (Wisent). HPNE hTERT (ATCC: CRL1423) were cultured in a mix of 75% DMEM without glucose (Sigma Cat#. D-5030) with additional 2 mM L-glutamine and 1.5 g/L sodium bicarbonate, 25% Medium M3 Base (Incell Corp. Cat# M300F- 500), fetal bovine serum 5% (wisent 10 ng/ml human recombinant EGF (Sigma-Aldrich), 5.5 mM D-glucose (Sigma-Aldrich), 750 ng/ml puromycin (Sigma-Aldrich). For dose-response assays, cells were seeded in 96 well plates (company). After 24 h, treatments were applied and cells were grown for 3 more days. Crystal violet retention assay used for cell growth assays were described previously^2. The data is expressed as relative absorbance of crystal violet extracted from the cells and diluted in 10 % acetic acid. IC50 were determined using Prism (GraphPad). Tumor spheres were grew according to Ferbeyre et al^3.

[6] = test system: HPNE cells (normal immortalized pancreatic epithelial cells); assay: Growth assay (crystal violet), HPNE cells; type: cell-based, human; conditions: 3 days treatment, crystal violet retention assay
Description: . The IC50 of most of the synthetic biguanides in HPNE cells was higher than for cancer cells (Supplementary Table S12).
as §3, §4

red blood cells = assay: Hemolytic activity of PEB-biguanidium salts; type: cell-based; conditions: red blood cells 2% v/v in PBS, 1 h at 37 °C
Description: The toxicity of PEB-Biguanidiums salts was estimated through their hemolytic activity by incubating red blood cells (RBC) with the compounds for 1 h (See Supplementary Table S13 and Supplementary Fig. S29).
Experimental. Red blood cells in Alsever’s solution were centrifuged for 10 min at 300g, washed 3 times with PBS buffer, and resuspended in PBS at 2% v/v. To each well of a 96-well plate, 195 µL of red blood cell solution and 5 µL of biguanidium salt in DMSO were added, and the plate was incubated with light agitation for 1 h at 37 °C. The plate was then centrifuged for 10 min at 300g, and 50 µL of the supernatant solution of each well was transferred to another plate. Absorbance was measured at λ = 405 nm. Each measurement was performed in triplicate in three different experiments.

## [H]/N=C(/N)N/C(=N/[H])NCCc1ccccc1 [phenformin, reference compound]
[1]
  Change of internal vesicular pH (HPTS): no membrane activity
[2]
  Membrane depolarization (Safranin-O fluorescence): did not show this activity
[3]
  Crossing to the trans-aqueous side of the U-tube (in words): only traces
[4]
  Effect on tumor volume: only modest or non-significant effects
KP4 tumor sections
  KI67 staining in tumors: to a smaller extent
[5]
  Growth inhibition of NB508 cells: no effect was observed

## N=C(N)NC(=N)NCc1ccc(C#Cc2ccccc2)cc1 [1a, 4-(phenylethynyl)benzylbiguanide]
IMR90 fibroblasts
  Selectivity towards cancer cells (NB508 vs IMR90 fibroblasts): good selectivity towards cancer cells
KP4 cells
  IC50: 7.55 µM
[6]
  IC50: 16.1 µM
Red blood cells
  HC 10% (µM): > 175 µM
  HC 10% (µg/ml): > 100 µg/mL
[5]
  Growth inhibition of NB508 cells: most important antiproliferative activities
